Tested on: 4T1 cells (breast cancer cells in mice)
Test: Photodynamic therapy of tumors in mice (tumor size, tumor weight, B cells in tumor tissue)
Format: in vivo, BALB/C mice
Conditions: 14 days after treatment
Procedure: 1. Photodynamic therapy experiments on tumors were carried out by using BJMU-204 as a photosensitizer and BALB/C mice as experimental animals. Modeling mode: BALB/C mice were divided into 5 groups in total, 11-12 mice in each group. 4T1 cells (breast cancer cells in mice) were resuscitated and subcultured to a better cell state for tumorigenesis inoculation. BALB/C mice were locally depilated and disinfected, and tumor cells were injected into the mouse mammary fat pad in situ. Tumors were formed within 7 to 10 days. […] [table] 2. Mice in each experimental group were subjected to blood collection for serum separation and necropsy, and tumors were taken out and measured to obtain their wet weights; tumor tissues were fixed, pathological examinations were performed, and H. E. staining was used to observe the changes of tumors of the mice under an optical microscope; blood routine indicators (including white blood cell count (WBC), red blood cell count (RBC), lymphocyte count (LY), platelet count (PLT) and many other blood routine indicators) and blood biochemical indicators (including routine blood biochemical indicators) were tested and analyzed in the Laboratory of Peking University Third Hospital. 3. Tumors were taken out of mice in each experimental group, a piece of tumor tissue about 1 cm*1 cm*0.5 cm in size was cut up and placed in a 10 ml EP tube. 5 ml of pancreatin was added for digestion. 30 min later, the digestion was ended. The digestion solution and the tumor tissue were sieved through a single cell sieve to obtain a tumor tissue single-cell suspension. B220 antibody (for flow cytometry) was added to the suspension and the resulting solution was stained with a PI staining solution; 30 min later, the staining was ended and the staining solution was removed; next, re-suspending was carried out with a PBS solution for test with a flow cytometry.

CC(=O)C(C)=O [BJMU-204]
number of B cells in tumor tissues (3% (p<0.001) and 0.5% (p<0.01) intratumoral + light vs control): increases significantly
weight changes of tumor tissues (3% and 0.5% intratumoral + light, both p<0.001 vs control, better at high concentration): obvious growth inhibition effect
size changes of tumor tissues (3% and 0.5% intratumoral + light, both p<0.001 vs control, more prominent at high concentration): controlled and decreased

Source: patent publication US20220257764A1, “USE OF DIKETONE COMPOUND IN PHOTODYNAMIC THERAPY OR DIAGNOSIS” (BEIJING WHOLESOMETECH CO., LTD., priority 2019, published 2022)
